Experimental data published in patent US20260116920A1, “HUMAN TRANSFERRIN RECEPTOR BINDING PEPTIDE” (PEPTIDREAM INC., priority 2021, published 2026).
Positions of bridges follow the written chain, without caps; N, C: chain ends. Non-standard residues stand in square brackets, D forms with d. Residues, ends and D or L forms follow the SMILES beside them. NMePhe(3-Cl) = CN[C@@H](Cc1cccc(Cl)c1)C(=O)O; 3Pal(6-NH2) = Nc1ccc(C[C@H](N)C(=O)O)cn1; NMe3Pal = CN[C@@H](Cc1cccnc1)C(=O)O; NMe4Pal = CN[C@@H](Cc1ccncc1)C(=O)O; NMeY = CN[C@@H](Cc1ccc(O)cc1)C(=O)O; 3Pal = N[C@@H](Cc1cccnc1)C(=O)O; 4Pal = N[C@@H](Cc1ccncc1)C(=O)O; PEG4 = NCCOCCOCCOCCOCCC(=O)O

molecular target: T1, human transferrin receptor (hTfR) (Homo sapiens, UniProt P02786); test: Evaluation of molecular interaction between transferrin receptor (hTfR) and peptide using surface plasmon resonance (SPR); assay type: binding; settings: surface plasmon resonance, binding to hTfR; KD class symbol; read-out: SPR (KD value)
T1 construct: made in house
T1 sequence (P02786 89-760 limits assumed): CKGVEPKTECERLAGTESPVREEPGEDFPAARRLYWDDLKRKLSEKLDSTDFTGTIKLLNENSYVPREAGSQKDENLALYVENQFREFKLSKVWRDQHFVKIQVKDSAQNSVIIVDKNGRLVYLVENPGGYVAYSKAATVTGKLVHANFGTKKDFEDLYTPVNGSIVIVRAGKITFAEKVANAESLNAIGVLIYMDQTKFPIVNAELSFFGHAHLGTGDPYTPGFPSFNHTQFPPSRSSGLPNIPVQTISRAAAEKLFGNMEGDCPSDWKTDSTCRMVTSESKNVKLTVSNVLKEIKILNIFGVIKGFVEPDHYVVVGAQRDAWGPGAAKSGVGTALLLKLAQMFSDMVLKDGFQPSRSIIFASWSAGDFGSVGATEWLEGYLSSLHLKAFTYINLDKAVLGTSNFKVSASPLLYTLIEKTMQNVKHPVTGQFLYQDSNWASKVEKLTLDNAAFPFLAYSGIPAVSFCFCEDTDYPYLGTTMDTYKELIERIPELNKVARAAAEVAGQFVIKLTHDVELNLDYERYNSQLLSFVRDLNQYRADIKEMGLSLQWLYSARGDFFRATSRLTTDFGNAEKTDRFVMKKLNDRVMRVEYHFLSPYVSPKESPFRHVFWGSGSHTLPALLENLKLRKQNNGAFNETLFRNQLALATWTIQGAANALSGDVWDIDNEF
Summary of the method: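 Using a Ni-NTA surface bearing covalently coupled hTfR dimer, peptides were tested at five concentrations from 5 to 100 nM. Running buffer was 10 mM HEPES pH 8.0, 150 mM NaCl, 0.05% Tween 20, 0.1% BSA, 1.0% DMSO; single-cycle sensorgrams were least-squares fitted for KD.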

Kd, 1 to 100 nM:
CC[C@H](C)[C@@H]1NC(=O)[C@H](Cc2cccnc2)NC(=O)[C@H](Cc2ccc(O)cc2)NC(=O)[C@H](CC(N)=O)NC(=O)[C@H](Cc2c[nH]c3ccccc23)NC(=O)[C@H](C(C)C)NC(=O)[C@H](Cc2cccc(Cl)c2)N(C)C(=O)[C@H](C(C)C)NC(=O)[C@H](C)NC(=O)CSC[C@@H](C(=O)NCCOCCOCCOCCOCCC(N)=O)NC(=O)[C@H](Cc2ccc(O)cc2)N(C)C(=O)[C@H](Cc2ccccc2)NC(=O)[C@H](CCCNC(=N)N)NC(=O)[C@H](CCCNC(=N)N)NC(=O)[C@H]([C@@H](C)CC)NC1=O [compound 60] ({CH2CO}-AV[NMePhe(3-Cl)]VWNY[3Pal]IIRRF[NMeY]C[PEG4]-NH2; thioether N-15)
CC[C@H](C)[C@@H]1NC(=O)[C@H](Cc2ccncc2)NC(=O)[C@H](Cc2ccc(O)cc2)NC(=O)[C@H](CC(N)=O)NC(=O)[C@H](Cc2c[nH]c3ccccc23)NC(=O)[C@H](C(C)C)NC(=O)[C@H](Cc2cccc(Cl)c2)N(C)C(=O)[C@H](C(C)C)NC(=O)[C@H](C)NC(=O)CSC[C@@H](C(=O)NCCOCCOCCOCCOCCC(N)=O)NC(=O)[C@H](Cc2ccc(O)cc2)N(C)C(=O)[C@H](Cc2ccccc2)NC(=O)[C@H](CCCNC(=N)N)NC(=O)[C@H](CCCNC(=N)N)NC(=O)[C@H]([C@@H](C)CC)NC1=O [compound 61] ({CH2CO}-AV[NMePhe(3-Cl)]VWNY[4Pal]IIRRF[NMeY]C[PEG4]-NH2; thioether N-15)
CC[C@H](C)[C@@H]1NC(=O)[C@H](Cc2ccncc2)NC(=O)[C@H](Cc2ccc(N)nc2)NC(=O)[C@H](CC(N)=O)NC(=O)[C@H](Cc2c[nH]c3ccccc23)NC(=O)[C@H](C(C)C)NC(=O)[C@H](Cc2cccc(Cl)c2)N(C)C(=O)[C@H](C(C)C)NC(=O)[C@H](C)NC(=O)CSC[C@@H](C(=O)NCCOCCOCCOCCOCCC(N)=O)NC(=O)[C@H](Cc2ccc(O)cc2)N(C)C(=O)[C@H](Cc2ccncc2)NC(=O)[C@H](CCCNC(=N)N)NC(=O)[C@H](CCCNC(=N)N)NC(=O)[C@H]([C@@H](C)CC)NC1=O [compound 62] ({CH2CO}-AV[NMePhe(3-Cl)]VWN[3Pal(6-NH2)][4Pal]IIRR[4Pal][NMeY]C[PEG4]-NH2; thioether N-15)
CC[C@H](C)[C@@H]1NC(=O)[C@H](Cc2ccc(OC)cc2)NC(=O)[C@H](Cc2ccc(N)nc2)NC(=O)[C@H](CC(N)=O)NC(=O)[C@H](Cc2c[nH]c3ccccc23)NC(=O)[C@H](C(C)C)NC(=O)[C@H](Cc2cccnc2)N(C)C(=O)[C@H](C(C)C)NC(=O)[C@H](C)NC(=O)CSC[C@@H](C(=O)NCCOCCOCCOCCOCCC(N)=O)NC(=O)[C@H](Cc2ccc(O)cc2)N(C)C(=O)[C@H](Cc2ccccc2)NC(=O)[C@H](CCCNC(=N)N)NC(=O)[C@H](CCCNC(=N)N)NC(=O)[C@H]([C@@H](C)CC)NC1=O [compound 63] ({CH2CO}-AV[NMe3Pal]VWN[3Pal(6-NH2)]Y(Me)IIRRF[NMeY]C[PEG4]-NH2; thioether N-15)
CC[C@H](C)[C@@H]1NC(=O)[C@H](Cc2ccc(OC)cc2)NC(=O)[C@H](Cc2ccc(N)nc2)NC(=O)[C@H](CC(N)=O)NC(=O)[C@H](Cc2c[nH]c3ccccc23)NC(=O)[C@H](C(C)C)NC(=O)[C@H](Cc2ccncc2)N(C)C(=O)[C@H](C(C)C)NC(=O)[C@H](C)NC(=O)CSC[C@@H](C(=O)NCCOCCOCCOCCOCCC(N)=O)NC(=O)[C@H](Cc2ccc(O)cc2)N(C)C(=O)[C@H](Cc2ccccc2)NC(=O)[C@H](CCCNC(=N)N)NC(=O)[C@H](CCCNC(=N)N)NC(=O)[C@H]([C@@H](C)CC)NC1=O [compound 64] ({CH2CO}-AV[NMe4Pal]VWN[3Pal(6-NH2)]Y(Me)IIRRF[NMeY]C[PEG4]-NH2; thioether N-15)
